Data taken from patent US5250517A (Hoffmann-La Roche Inc., priority 1987, dated 1993).
Where a SMILES comes first, the peptide text is derived from it. [ ]: non-standard residue; d: D form. The star is where a group is joined. X1 = C=C[C@@H](CC(O)[C@H](CC1CCCCC1)N*)C(C)C; Boc = CC(C)(C)OC(=O)*

These compounds were tested against T1, human renin (Homo sapiens, UniProt P00797) (assay: In Vitro Test With Pure Human Renin). Settings: human tetradecapeptide renin substrate (hTD), pH 7.4, 3 hours at 37° C. vs 4° C., angiotensin I by RIA.
T1 sequence (P00797 67-406): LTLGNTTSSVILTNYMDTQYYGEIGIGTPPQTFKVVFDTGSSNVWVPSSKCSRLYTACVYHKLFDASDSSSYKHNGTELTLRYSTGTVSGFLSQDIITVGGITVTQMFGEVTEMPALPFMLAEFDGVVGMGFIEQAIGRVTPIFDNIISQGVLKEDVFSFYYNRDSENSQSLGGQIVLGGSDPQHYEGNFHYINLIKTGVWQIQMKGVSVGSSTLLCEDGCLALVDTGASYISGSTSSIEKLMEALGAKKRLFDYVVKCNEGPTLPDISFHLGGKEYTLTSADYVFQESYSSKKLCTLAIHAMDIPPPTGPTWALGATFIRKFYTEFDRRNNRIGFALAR
Type: biochemical
Experimental: In Vitro Test With Pure Human Renin
The test is carried out in Eppendorf test tubes. The incubation mixture consists of (1) 100 μl of human renin in buffer A (0.1M sodium phosphate solution, pH 7.4, containing 0.1% bovine serum albumin, 0.1% sodium azide and 1 mM ethylenediaminetetraacetic acid), sufficient for a renin activity of 2-3 ng of angiotensin I/ml/hr.; (2) 145 μl of buffer A; (3) 30 μl of 10 μM human tetradecapeptide renin substrate (hTD) in 10 mM hydrochloric acid; (4) 15 μl of dimethyl sulfoxide with or without inhibitor and (5) 10 μl of a 0.03 molar solution of hydroxyquinoline sulfate in water.
The samples are incubated for 3 hours at 37° C. or 4° C. in triplicate. 2×100 μl samples per experimental test tube are used in order to measure the production of angiotensin I via RIA (standard radioimmunoassay; clinical assay solid phase kit). […] The production of angiotensin I in determined by the difference between the experiment at 37° C. and that at 4° C.
The following controls are carried out:
(a) Incubation of hTD samples without renin and without inhibitor at 37° C. and 4° C. The difference between these two values gives the base value of angiotensin I production.
(b) Incubation of hTD samples with renin, but without inhibitor at 37° C. and 4° C. The difference between these values gives the maximal value of angiotensin I production.
In each sample, the base value of the angiotensin I production is subtracted from the angiotensin I production which is determined. The difference between the maximal value and the base value gives the value of the maximal substrate hydrolysis (=100%) by renin.
The IC50 values are determined from a linear regression curve from a logit-log plot.
`C=C[C@@H](C[C@H](O)[C@H](CC1CCCCC1)NC(=O)[C@H](Cc1c[nH]cn1)NC(=O)[C@@H](CC(=O)N(C)C)Cc1ccccc1)C(C)C` [O, (S)-N-[(1S,2S,4S)-1-(cyclohexylmethyl)-2-hydroxy-4-isopropyl-5-hexenyl]-α-[(R)-α-[(dimethylcarbamoyl)-methyl]hydrocinnamamido]imidazole-4-propionamide] gave an IC50 of 12 nM.
`C=C[C@@H](C[C@H](O)[C@H](CC1CCCCC1)NC(=O)[C@H](Cc1c[nH]cn1)NC(=O)C(CC(=O)NCCN(CC(=O)OC(C)(C)C)C(=O)OC(C)(C)C)Cc1ccccc1)C(C)C` (mixture of isomers) [Compound I, t-butyloxycarbonyl [2-[(R and S)-3-[[(S)-1-[[(1S,2S,4S)-1-(cyclohexylmethyl)-2-hydroxy-4-isopropyl-5-hexenyl]carbamoyl]-2-imidazol-4-ylethyl]-carbamoyl]-4-phenylbutyramido]ethyl]glycine t-butyl ester] showed an IC50 of 46 nM.
In the case of `CC[C@@H](C[C@H](O)[C@H](CC1CCCCC1)NC(=O)[C@H](Cc1c[nH]cn1)NC(=O)[C@@H](CC(=O)NC(C)(CO)CO)Cc1ccccc1)C(C)C` [G, (S)-N-[(1S,2S,4S)-1-(cyclohexylmethyl)-2-hydroxy-4-isopropylhexyl]-α-[[[[(R)-α-2-hydroxy-1-(hydroxymethyl)-1-methylethyl]carbamoyl]methyl]hydrocinnamamido]imidazole-4-propionamide], the IC50 is reported as 15 nM.
For `C=C[C@@H](C[C@H](O)[C@H](CC1CCCCC1)NC(=O)[C@H](Cc1c[nH]cn1)NC(=O)[C@H](Cc1ccccc1)NC(=O)OC(C)(C)C)C(C)C` [D, t-butyl [(S)-α-[[(S)-1-[[(1S,2S,4S)-1-cyclohexylmethyl-2-hydroxy-4-isopropyl-5-hexenyl]carbamoyl]-2-imidazol-4-ylethyl]carbamoyl]phenethyl]carbamate], the IC50 was 7.5 nM.
Compound `C=C[C@@H](CC(O)[C@H](CC1CCCCC1)NC(=O)[C@H](Cc1c[nH]cn1)NC(=O)[C@H](Cc1ccccc1)NC(=O)[C@@H]1CCCN1C(=O)[C@H]1CCCN1C(=O)OC(C)(C)C)C(C)C` (stereo partly drawn) [R, (2S,5S)-2-(Boc--D--Pro--Pro--Phe--His--NH)-1-cyclohexyl-5-isopropyl-6-hepten-3-ol] (Boc-[dP]PFH-X1) has an IC50 of 1.7 nM.
In the case of `C=C[C@@H](C[C@H](O)[C@H](CC1CCCCC1)NC(=O)[C@H](Cc1c[nH]cn1)NC(=O)CC(C)C)C(C)C` [C], the IC50 is reported as 9 nM.
`C=C[C@@H](C[C@H](O)[C@H](CC1CCCCC1)NC(=O)[C@H](Cc1c[nH]cn1)NC(=O)[C@H](Cc1ccccc1)NC(=O)[C@H]1CCCN1C(=O)OC(C)(C)C)C(C)C` [B, (2S,3S,5S)-2-(Boc--D--Pro--Phe--His--NH)-1-cyclohexyl-5-isopropyl-6-hepten-3-ol] showed an IC50 of 0.3 nM.
`C=C[C@@H](C[C@H](O)[C@H](CC1CCCCC1)NC(=O)[C@H](Cc1c[nH]cn1)NC(=O)[C@H](Cc1ccccc1)NC(=O)N1CCOCC1)C(C)C` [M] was tested, and the IC50 was 21 nM.
Compound `C=C[C@@H](C[C@H](O)[C@H](CC1CCCCC1)NC(=O)[C@H](Cc1c[nH]cn1)NC(=O)[C@@H](CC(=O)NC(C)(CO)CO)Cc1ccccc1)C(C)C` [K, (S)-N-[(1S,2S,4S)-1-(cyclohexylmethyl)-2-hydroxy-4-isopropyl-5-hexenyl]-α-[(R)-α-[[[2-hydroxy-1-(hydroxymethyl)-1-methylethyl]carbamoyl]methyl]hydrocinnamamido]imidazole-4-propionamide] has an IC50 of 17 nM.
`CC[C@@H](C[C@H](O)[C@H](CC1CCCCC1)NC(=O)[C@H](Cc1c[nH]cn1)NC(=O)C(CC(=O)C1CCCC1)Cc1ccccc1)C(C)C` (mixture of isomers) [Q] was tested, and the IC50 was 68 nM.
Work on `CC[C@@H](C[C@H](O)[C@H](CC1CCCCC1)NC(=O)[C@H](Cc1c[nH]cn1)NC(=O)[C@H](Cc1ccccc1)NC(=O)[C@H]1CCCN1C(=O)OC(C)(C)C)C(C)C` [A] yielded an IC50 of 3.5 nM.
Compound `C=C[C@@H](C[C@H](O)[C@H](CC1CCCCC1)NC(=O)[C@H](Cc1c[nH]cn1)NC(=O)[C@@H](CC(N)=O)Cc1ccccc1)C(C)C` [N, (S)-α-[(R)-α-(carbamoylmethyl)hydrocinnamamido]-N-[(1S,2S,4S)-1-(cyclohexylmethyl)-2-hydroxy-4-isopropyl-5-hexenyl]imidazole-4-propionamide] has an IC50 of 140 nM.
`CC[C@@H](C[C@H](O)[C@H](CC1CCCCC1)NC(=O)[C@H](Cc1c[nH]cn1)NC(=O)[C@H](Cc1ccccc1)NC(=O)OC(C)(C)C)C(C)C` [E, t-butyl [(S)-α-[[(S)-1-[[(1S,2S,4S)-1-cyclohexylmethyl-2-hydroxy-4-isopropylhexyl]carbamoyl]-2-imidazol-4-ylethyl]carbamoyl]phenethyl]carbamate] gave an IC50 of 7.9 nM.
With `C=C[C@@H](C[C@H](O)[C@H](CC1CCCCC1)NC(=O)[C@H](Cc1c[nH]cn1)NC(=O)C(CC(=O)C1CCCC1)Cc1ccccc1)C(C)C` (mixture of isomers) [P, (S)-N-[(1S,2S,4S)-1-(cyclohexylmethyl)-2-hydroxy-4-isopropyl-5-hexenyl]-α-[(RS)-α-[(cyclopentyl-carbonyl)methyl]hydrocinnamamido]imidazole-4-propionamide] the IC50 was 46 nM.
`C=C[C@@H](C[C@H](O)[C@H](CC1CCCCC1)NC(=O)[C@H](Cc1c[nH]cn1)NC(=O)[C@@H](CC(=O)C(C)(C)C)Cc1ccccc1)C(C)C` [L] was tested, and the IC50 was 7 nM.
`CC[C@@H](C[C@H](O)[C@H](CC1CCCCC1)NC(=O)[C@H](Cc1c[nH]cn1)NC(=O)[C@@H](CC(=O)[C@@H]1CCCN1C(=O)OC(C)(C)C)Cc1ccccc1)C(C)C` [F, t-butyl (S)-2-[[(R)-α-[[(S)-1-[[(1S,2S,4S)-1-(cyclohexylmethyl)-2-hydroxy-4-isopropylhexyl]carbamoyl]-2-imidazol-4-ylethyl]carbamoyl]phenethyl]acetyl]-1-pyrrolidinecarboxylate] was tested, and the IC50 was 4 nM.
For `CC[C@@H](C[C@H](O)[C@H](CC1CCCCC1)NC(=O)[C@H](Cc1c[nH]cn1)NC(=O)C(CC(=O)N1CCOCC1)Cc1cccc2ccccc12)C(C)C` (some centres unmarked) [H], the IC50 was 4.1 nM.
